Here are results for one compound from paper PMC7024211, “Antifouling Napyradiomycins from Marine-Derived Actinomycetes Streptomyces aculeolatus” (Marine Drugs, 2020).

SMILES strings stand for the structures.

The subject of one test is P. inhibens. Kind of test: Biofilm inhibition assay (crystal violet). Format: cell-based, Phaeobacter inhibens. The settings on record: 31.25 µg/mL. The protocol:
(§1) In a 96-well plate, biofilm grown cultures of M. hydrocarbonoclasticus and C. marina were incubated with napyradiomycins (1–12) at a concentration of 31.25 µg/mL. After discarding the media, biofilm inhibition was determined from OD600 measurements of crystal violet stained cells resuspended from the plate bottom with acetic acid.
(§2) Five marine bacterial species were used as models to assess antimicrofouling activity. The biofilm-forming marine bacteria Marinobacter hydrocarbonoclasticus DSM 8798 (ATCC 49840), Cobetia marina DSM 4741, Phaeobacter inhibens DSM 17,395, and Pseusooceanicola batsensis DSM 15,984 were obtained from DSMZ (Leibniz Institute DSMZ—German collection of Microorganisms and Cell Cultures) and Micrococcus luteus. Cultures were routinely grown in liquid marine broth (Carl Roth GmbH, Karlsruhe, Germany) with agitation (180 rpm) or on agar-supplemented marine broth, at 28 °C (M. hydrocarbonoclasticus and C. marina) or 30 °C (P. inhibens and P. batsensis). M. luteus was maintained in Brain Heart Infusion broth (BHI, Becton Dickinson, GmbH, Heidelberg, Germany) with agitation (180 rpm) or on agar-supplemented BHI, at 37 °C.
(§3) The antibiofilm activity of napyradiomycins (1–12) against the five marine bacterial species was assessed in 96-well polystyrene flat bottom microplates (Nunclon Delta Surface, Thermo Scientific, Roskilde, Denmark) as previously reported. For initial screening, bacterial overnight cultures were diluted to an optical density (OD600nm) value of 0.2 and incubated statically at 28 °C (M. hydrocarbonoclasticus, C. marina), 30 °C (P. inhibens, P. batsensis) or 37 °C (M. luteus) in the 96-well microplate in the presence or absence of 31.25 µg/mL of napyradiomycins, solubilized in DMSO. After 24 h (M. hydrocarbonoclasticus, C. marina) or 48 h (P. batsensis, P. inhibens, M. luteus) incubation, the OD600nm was determined. The planktonic cells and media were discarded, and the wells were washed twice with deionized water. The biofilm was fixed for 1 h at 60 °C and stained with crystal violet 0.06% for 10 min. The dye was discarded, and the wells were again washed twice with deionized water. The stained biofilm was solubilized with 30% acetic acid and the OD600nm was determined. […] The percentage of biofilm inhibition was calculated as the amount of biofilm relative to that of the bacterial species without added compounds (with the same amount of DMSO added). CuSO4 (5 μM), a potent antifouling agent used in antifouling paints, was used as reference.
All assays were performed in triplicate, and results are representative of the average and standard error of the mean (SEM). […]

For a further test, the system named is P. batsensis. Kind of test: Bacterial growth inhibition assay (OD600nm). Format: cell-based, Pseudooceanicola batsensis. The protocol: As a first screening approach, liquid cultures of M. hydrocarbonoclasticus, and C. marina in a 96-well format were analyzed for bacterial growth inhibition by percent decrease in OD600 after incubation with napyradiomycins (1–12) at 31.25 µg/mL.
as §2
The antibacterial activity of the napyradiomycins (1–12) was assessed in 96-well polystyrene flat bottom microplates (Nunclon Delta Surface, Thermo Scientific, Roskilde, Denmark) following previously reported procedures. For initial screening, bacterial overnight cultures were diluted to an optical density (OD600nm) of 0.2 and incubated statically at 28 °C (M. hydrocarbonoclasticus, C. marina), 30 °C (P. inhibens, P. batsensis) or 37 °C (M. luteus) in a 96-well microplate in the presence or absence of 31.25 µg/mL of the napyradiomycins, solubilized in DMSO. After 24 h (M. hydrocarbonoclasticus, C. marina) or 48 h (P. batsensis, P. inhibens, M. luteus) incubation, the OD600nm was determined (Molecular Devices, Spectra Max 190). […] The percentage of growth inhibition was calculated as the amount of growth relative to that of the bacterial species without added compounds (with the same amount of DMSO added). CuSO4 (5 μM), a potent antifouling agent used in antifouling paints, was used as reference.
All assays were performed in triplicate, and results are representative of the average and standard error of the mean (SEM). Statistical analysis was performed in GraphPad Prism 8.0.2 (San Diego, CA, USA), using one-way ANOVA followed by a Dunnett’s multiple comparisons test against the control (species grown with the same amount of DMSO added).

For another test, the system named is M. luteus. Put plainly: Biofilm inhibition assay (crystal violet). Format: cell-based, Micrococcus luteus. On the procedure: as §1, §2, §3
All assays were performed in triplicate, and results are representative of the average and standard error of the mean (SEM). Statistical analysis was performed in GraphPad Prism 8.0.2, using one-way ANOVA followed by a Dunnett’s multiple comparisons test against the control (species grown with the same amount of DMSO added).

A word on the inhibition: it is the drop in the measured response relative to a control, in per cent. For the compound `CC(C)=CCCC(C)=CCC12OC(C)(C)C(Cl)CC1(Cl)C(=O)c1c(O)cc(O)cc1C2=O` (centres unmarked) [Napyradiomycin 1, napyradiomycin A1], in the test with P. inhibens, the “% Biofilm Inhibition ± SEM P. inhibens” value is given as “N.I”. The “% growth inhibition P. batsensis” value in the test with P. batsensis (0.98 µg/mL), with P. batsensis (1.95 µg/mL) and with P. batsensis (3.91 µg/mL) was “N.I” each time. The inhibition at 7.81 µg/mL in the test on P. batsensis (Pseudooceanicola batsensis, 7.81 µg/mL) amounted to 47.4 ± 0.3%; in the test on M. luteus (Micrococcus luteus, 7.81 µg/mL, read-out: % inhibition of biofilm formation M. luteus) it was 96.7 ± 0.5%. Further, the inhibition at 15.6 µg/mL in the test on P. batsensis (Pseudooceanicola batsensis, 15.60 µg/mL) amounted to 62.7 ± 0.6%; with M. luteus (Micrococcus luteus, 15.6 µg/mL, read-out: % inhibition of biofilm formation M. luteus), 95.4 ± 0.9%. Further, the inhibition at 31.25 µg/mL with P. batsensis (Pseudooceanicola batsensis, 31.25 µg/mL) stood at 53.9 ± 0.3%; with M. luteus (Micrococcus luteus, 31.25 µg/mL, read-out: % Biofilm Inhibition ± SEM M. luteus), 88.6 ± 2.9%. The inhibition at 0.98 µg/mL in the test on M. luteus (Micrococcus luteus, 0.98 µg/mL, read-out: % inhibition of biofilm formation M. luteus) came to 59 ± 7.4%. For the same compound, the inhibition at 1.95 µg/mL in the test with M. luteus (Micrococcus luteus, 1.95 µg/mL, read-out: % inhibition of biofilm formation M. luteus) worked out at 90.3 ± 3.8%. The inhibition at 3.91 µg/mL in the test on M. luteus (Micrococcus luteus, 3.91 µg/mL, read-out: % inhibition of biofilm formation M. luteus) came out at 95.8 ± 2.9%. In addition, the “% inhibition of biofilm formation M. luteus” value with M. luteus (concentrations higher than 1.95 µg/mL) is given as above 90%.
